Experimental data as given in ChEMBL document CHEMBL1201862, “PubChem BioAssay data set” (2004).
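Following 48 hours of exposure in 96-well plates, responses at five concentrations were used to interpolate endpoints linearly. Abbreviation: GI50, concentration required for 50% inhibition of growth.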 Calls of active or inactive are those of the source. Cut-off read from the data, not from the text of the source: active = GI50 up to about 1.1 µM and inactive = higher.

Tests used:
Assay in all cases: growth of human tumour cells (NCI), 48 h
A498 = test system: A498
A549 = test system: A549
ACHN = test system: ACHN
CAKI-1 = test system: CAKI-1
CCRF-CEM = test system: CCRF-CEM
COLO 205 = test system: COLO 205
DU-145 = test system: DU-145
EKVX = test system: EKVX
HCC 2998 = test system: HCC 2998
HCT-116 = test system: HCT-116
HCT-15 = test system: HCT-15
HL-60 = test system: HL-60
HOP-62 = test system: HOP-62
HOP-92 = test system: HOP-92
HT-29 = test system: HT-29
Hs-578T = test system: Hs-578T
IGROV-1 = test system: IGROV-1
K562 = test system: K562
KM12 = test system: KM12
LOX IMVI = test system: LOX IMVI
MCF7 = test system: MCF7
MDA-MB-231 = test system: MDA-MB-231
MDA-MB-435 = test system: MDA-MB-435
MDA-N = test system: MDA-N
MOLT-4 = test system: MOLT-4
Malme-3M = test system: Malme-3M
NCI-H226 = test system: NCI-H226
NCI-H23 = test system: NCI-H23
NCI-H460 = test system: NCI-H460
NCI-H522 = test system: NCI-H522
NCI/ADR-RES = test system: NCI/ADR-RES
OVCAR-3 = test system: OVCAR-3
OVCAR-4 = test system: OVCAR-4
OVCAR-5 = test system: OVCAR-5
OVCAR-8 = test system: OVCAR-8
PC-3 = test system: PC-3
RXF 393 = test system: RXF 393
SF-268 = test system: SF-268
SF-295 = test system: SF-295
SF-539 = test system: SF-539
SK-MEL-28 = test system: SK-MEL-28
SK-MEL-2 = test system: SK-MEL-2
SK-MEL-5 = test system: SK-MEL-5
SK-OV-3 = test system: SK-OV-3
SN12C = test system: SN12C
SNB-19 = test system: SNB-19
SNB-75 = test system: SNB-75
SR = test system: SR
SW-620 = test system: SW-620
T47D = test system: T47D
TK-10 = test system: TK-10
U-251 = test system: U-251
UACC-257 = test system: UACC-257
UACC-62 = test system: UACC-62

For `CC1C/C(=C\c2ccc(O)c(O)c2)C(=O)/C(=C/c2ccc(O)c(O)c2)C1` (centres undefined), the GI50 (A498) was 3.18 µM (inactive), the GI50 (A549) was 13.4 µM (inactive) and the GI50 (ACHN) was 8.71 µM (inactive). For the same compound, the GI50 (CAKI-1) was 5.74 µM (inactive), the GI50 (CCRF-CEM) was 3.06 µM (inactive) and the GI50 (COLO 205) was 16.9 µM (inactive). For the same compound, the GI50 (DU-145) was 8.85 µM (inactive), the GI50 (EKVX) was 14.1 µM (inactive) and the GI50 (HCC 2998) was 18.2 µM (inactive). The GI50 (HCT-116) was 6.67 µM (inactive), the GI50 (HCT-15) was 8.85 µM and the GI50 (HL-60) was 4.93 µM (inactive). For the same compound, the GI50 (HOP-62) was 11.3 µM (inactive), the GI50 (HOP-92) was 6.18 µM (inactive) and the GI50 (HT-29) was 18 µM (inactive). The GI50 (Hs-578T) was 4.06 µM (inactive), the GI50 (IGROV-1) was 6 µM (inactive) and the GI50 (K562) was 5.83 µM (inactive). For the same compound, the GI50 (KM12) was 8.17 µM (inactive), the GI50 (LOX IMVI) was 7.06 µM (inactive) and the GI50 (MCF7) was 3.11 µM (inactive). The GI50 (MDA-MB-231) was 11.3 µM (inactive), the GI50 (MDA-MB-435) was 2.83 µM (inactive) and the GI50 (MDA-N) was 4.69 µM (inactive). For the same compound, the GI50 (MOLT-4) was 4.76 µM (inactive), the GI50 (Malme-3M) was 10.4 µM (inactive) and the GI50 (NCI-H226) was 2.86 µM (inactive). The GI50 (NCI-H23) was 4.14 µM (inactive), the GI50 (NCI-H460) was 12.7 µM (inactive) and the GI50 (NCI-H522) was 1.81 µM (inactive). The GI50 (NCI/ADR-RES) was 18.5 µM (inactive), the GI50 (OVCAR-3) was 5.25 µM (inactive) and the GI50 (OVCAR-4) was 7.16 µM (inactive). For the same compound, the GI50 (OVCAR-5) was 17.3 µM (inactive), the GI50 (OVCAR-8) was 9.04 µM (inactive) and the GI50 (PC-3) was 14 µM (inactive). The GI50 (RXF 393) was 3.73 µM (inactive), the GI50 (SF-268) was 6.12 µM (inactive) and the GI50 (SF-295) was 13.7 µM (inactive). The GI50 (SF-539) was 3.25 µM (inactive), the GI50 (SK-MEL-28) was 7.69 µM (inactive) and the GI50 (SK-MEL-2) was 6.97 µM (inactive). The GI50 (SK-MEL-5) was 4.23 µM (inactive), the GI50 (SK-OV-3) was 18.1 µM (inactive) and the GI50 (SN12C) was 5.48 µM (inactive). For the same compound, the GI50 (SNB-19) was 10.7 µM (inactive), the GI50 (SNB-75) was 4.73 µM (inactive) and the GI50 (SR) was 3.82 µM (inactive). For the same compound, the GI50 (SW-620) was 11.6 µM (inactive), the GI50 (T47D) was 4.57 µM (inactive) and the GI50 (TK-10) was 25 µM (inactive). For the same compound, the GI50 (U-251) was 5.51 µM (inactive), the GI50 (UACC-257) was 14.5 µM (inactive) and the GI50 (UACC-62) was 3.17 µM (inactive).
